Measurements reported in patent EP4201923A1, “5-SUBSTITUTED 2,3-DIHYDROPYRIDIN-4-ONES AND PROCESS FOR PREPARING THE SAME” (Karl-Franzens-Universität Graz, priority 2021, dated 2023).

Key:
MRC-5 cells = test: Cytotoxicity assay using MRC-5 cells (XTT colorimetric cell viability); assay type: cell-based, human; settings: solvent control DMSO 0.1 %
Description: The results are expressed as cell metabolic activity in % of the solvent control.

[1] = system: human CCRF-CEM leukemia cells; test: Anticancer activity by cytotoxicity to human CCRF-CEM leukemia cells (XTT colorimetric cell viability); assay type: cell-based; settings: solvent control DMSO 0.1 %
Protocol: Assays were performed using an established cancer cell line, human CCRF-CEM leukemia cells and cell viability determined as described above with a colorimetric assay using the tetrazolium salt XTT as reported (Moshin N et al. Monatshefte für Chemie 2018, 149, 801-812). The anticancer drug vinblastine, the solvent DMSO and the untreated cells are used as control. The compounds of examples 1 to 8 were investigated in concentrations of 5 µM and 50 µM. Table 2: Results for anticancer activity against CCRF-CEM cells expressed as cell metabolic activity in % of the solvent control The results are expressed as cell metabolic activity in % of the solvent control. […] Thus, the compounds of the present invention show a substantial anticancer activity.

Escherichia coli = test: Antimicrobial activity, drop plate method assay; assay type: cell-based; parameters: key: high activity (++); medium activity (+); low activity (±); no activity(-); settings: 10 µl of 1 mg/ml in DMSO dropped on seeded agar plate; read after approximately 10-16 h
Protocol: (§1) A drop plate method assay (Alajlani M et al. Chromatographia 2016, 79, 1527-1532.) with modification was performed to detect the antimicrobial activity against several bacteria strains. Investigated compounds (compounds of examples 1-7, 9) were dissolved in DMSO to a concentration of 1 mg/ml. Using sterile micropipette 10 µl of each compound was directly but gently dropped over seeded agar plate with test organism. The liquid was allowed to diffuse before the plate was inverted and incubated. The growth conditions for every strain were considered. The results were noted when a lawn of the indicator organism appeared on the plate (approximately 10-16 h). The magnitude of activity was noted as high activity (++), medium activity (+), low activity (±) and no activity(-). Not determined data are indicated with n.d. Table 3: Antimicrobial activities of compounds_were detected over the test organisms

Micrococcus luteus = test: Antimicrobial activity, drop plate method assay; assay type: cell-based; parameters: key: high activity (++); medium activity (+); low activity (±); no activity(-); settings: 10 µl of 1 mg/ml in DMSO dropped on seeded agar plate; read after approximately 10-16 h
Protocol: as §1

Pseudomonas fluorescens = test: Antimicrobial activity, drop plate method assay; assay type: cell-based; parameters: key: high activity (++); medium activity (+); low activity (±); no activity(-); settings: 10 µl of 1 mg/ml in DMSO dropped on seeded agar plate; read after approximately 10-16 h
Protocol: as §1

Serratia sp = test: Antimicrobial activity, drop plate method assay; assay type: cell-based; parameters: key: high activity (++); medium activity (+); low activity (±); no activity(-); settings: 10 µl of 1 mg/ml in DMSO dropped on seeded agar plate; read after approximately 10-16 h
Protocol: as §1

## CC1(C)CC(=O)C(C(c2ccc(F)cc2)N2CCCC2)=CN1 (racemic) [Example 4, (RS)-2,3-Dihydro-2,2-dimethyl-5-((4-fluorphenyl)-(pyrrolidin-1-yl)methyl)pyridin-4(1H)-one]
MRC-5 cells; compound 5 µM
  cell metabolic activity in % of the solvent control, mean: 105.92%
MRC-5 cells; compound 50 µM
  cell metabolic activity in % of the solvent control, mean: 90.99%
[1]; compound 5 µM
  cell metabolic activity in % of the solvent control, mean: 88.03%
[1]; compound 50 µM
  cell metabolic activity in % of the solvent control, mean: 8.82%
Escherichia coli
  Antimicrobial activity, Escherichia coli: ++
Micrococcus luteus
  Antimicrobial activity, Micrococcus luteus: +
Pseudomonas fluorescens
  Antimicrobial activity, Pseudomonas fluorescens: +
Serratia sp
  Antimicrobial activity, Serratia sp: +

## CC1(C)CC(=O)C(C(c2ccncc2)N2CCCC2)=CN1 (racemic) [Example 9, (RS)-2,3-Dihydro-2,2-dimethyl-5-((4-pyridyl)-(pyrrolidin-1-yl)methyl)pyridin-4(1H)-one]
Escherichia coli
  Antimicrobial activity, Escherichia coli: +
Micrococcus luteus
  Antimicrobial activity, Micrococcus luteus: +
Serratia sp
  Antimicrobial activity, Serratia sp: ±

## CC1(C)CC(=O)C(C(c2ccccc2C(F)(F)F)N2CCCC2)=CN1 (racemic) [Example 8, (RS)-2,3-Dihydro-2,2-dimethyl-5-((pyrrolidin-1-yl)-(2-trifluormethylphenyl)methyl)pyridin-4(1H)-one]
MRC-5 cells; compound 5 µM
  cell metabolic activity in % of the solvent control, mean: 103.65%
MRC-5 cells; compound 50 µM
  cell metabolic activity in % of the solvent control, mean: 67.08%
[1]; compound 5 µM
  cell metabolic activity in % of the solvent control, mean: 52.06%
[1]; compound 50 µM
  cell metabolic activity in % of the solvent control, mean: 8.46%

## CC(C)c1ccc(C(C2=CNC(C)(C)CC2=O)N2CCCC2)cc1 (racemic) [Example 5, (RS)-2,3-Dihydro-2,2-dimethyl-5-((4-isopropylphenyl)-(pyrrolidin-1-yl)methyl)pyridin-4(1H)-one]
MRC-5 cells; compound 5 µM
  cell metabolic activity in % of the solvent control, mean: 104.11%
MRC-5 cells; compound 50 µM
  cell metabolic activity in % of the solvent control, mean: 42.19%
[1]; compound 5 µM
  cell metabolic activity in % of the solvent control, mean: 75.36%
[1]; compound 50 µM
  cell metabolic activity in % of the solvent control, mean: 8.72%
Escherichia coli
  Antimicrobial activity, Escherichia coli: +
Pseudomonas fluorescens
  Antimicrobial activity, Pseudomonas fluorescens: ++
Serratia sp
  Antimicrobial activity, Serratia sp: ±

## CC1(C)CC(=O)C(C(c2ccccc2)N2CCCC2)=CN1 (racemic) [Example 1, (RS)-2,3-Dihydro-2,2-dimethyl-5-(phenyl(pyrrolidin-1-yl)methyl)pyridin-4(1H)-one]
MRC-5 cells; compound 5 µM
  cell metabolic activity in % of the solvent control, mean: 107.18%
MRC-5 cells; compound 50 µM
  cell metabolic activity in % of the solvent control, mean: 87.86%
[1]; compound 5 µM
  cell metabolic activity in % of the solvent control, mean: 88.69%
[1]; compound 50 µM
  cell metabolic activity in % of the solvent control, mean: 9.02%
Escherichia coli
  Antimicrobial activity, Escherichia coli: +
Micrococcus luteus
  Antimicrobial activity, Micrococcus luteus: +
Pseudomonas fluorescens
  Antimicrobial activity, Pseudomonas fluorescens: +
Serratia sp
  Antimicrobial activity, Serratia sp: ±

## CC1(C)CC(=O)C(C(c2ccc(F)cc2)N2CCOCC2)=CN1 (racemic) [Example 6, (RS)-2,3-Dihydro-2,2-dimethyl-5-((4-fluorphenyl)(morpholin-1-yl)methyl)pyridin-4 (1H) -one]
MRC-5 cells; compound 5 µM
  cell metabolic activity in % of the solvent control, mean: 105.36%
MRC-5 cells; compound 50 µM
  cell metabolic activity in % of the solvent control, mean: 89.35%
[1]; compound 5 µM
  cell metabolic activity in % of the solvent control, mean: 87.71%
[1]; compound 50 µM
  cell metabolic activity in % of the solvent control, mean: 8.78%
Escherichia coli
  Antimicrobial activity, Escherichia coli: +
Pseudomonas fluorescens
  Antimicrobial activity, Pseudomonas fluorescens: ++
Serratia sp
  Antimicrobial activity, Serratia sp: ±

## CC1(C)CC(=O)C(C(c2ccccc2)N2CCCCC2)=CN1 (racemic) [Example 2, (RS)-2,3-Dihydro-2,2-dimethyl-5-(phenyl(piperidin-1-yl)methyl)pyridin-4(1H)-one]
MRC-5 cells; compound 5 µM
  cell metabolic activity in % of the solvent control, mean: 108.05%
MRC-5 cells; compound 50 µM
  cell metabolic activity in % of the solvent control, mean: 82.27%
[1]; compound 5 µM
  cell metabolic activity in % of the solvent control, mean: 88.18%
[1]; compound 50 µM
  cell metabolic activity in % of the solvent control, mean: 8.75%
Escherichia coli
  Antimicrobial activity, Escherichia coli: +
Micrococcus luteus
  Antimicrobial activity, Micrococcus luteus: +
Pseudomonas fluorescens
  Antimicrobial activity, Pseudomonas fluorescens: +
Serratia sp
  Antimicrobial activity, Serratia sp: ±

## Cc1ccc(C(C2=CNC(C)(C)CC2=O)N2CCCC2)cc1 (racemic) [Example 7, (RS)-2,3-Dihydro-2,2-dimethyl-5-((4-methylphenyl)-(pyrrolidin-1-yl)methyl)pyridin-4(1H)-one]
MRC-5 cells; compound 5 µM
  cell metabolic activity in % of the solvent control, mean: 100.07%
MRC-5 cells; compound 50 µM
  cell metabolic activity in % of the solvent control, mean: 88.41%
[1]; compound 5 µM
  cell metabolic activity in % of the solvent control, mean: 87.47%
[1]; compound 50 µM
  cell metabolic activity in % of the solvent control, mean: 8.52%
Escherichia coli
  Antimicrobial activity, Escherichia coli: +
Pseudomonas fluorescens
  Antimicrobial activity, Pseudomonas fluorescens: ++
Serratia sp
  Antimicrobial activity, Serratia sp: ±

## CC1(C)CC(=O)C(C(c2ccccc2)N2CCOCC2)=CN1 (racemic) [Example 3, (RS)-2,3-Dihydro-2,2-dimethyl-5-(phenyl(morpholin-1-yl)methyl)pyridin-4(1H)-one]
MRC-5 cells; compound 5 µM
  cell metabolic activity in % of the solvent control, mean: 110.88%
MRC-5 cells; compound 50 µM
  cell metabolic activity in % of the solvent control, mean: 84.05%
[1]; compound 5 µM
  cell metabolic activity in % of the solvent control, mean: 93.13%
[1]; compound 50 µM
  cell metabolic activity in % of the solvent control, mean: 10.98%
Escherichia coli
  Antimicrobial activity, Escherichia coli: +
Micrococcus luteus
  Antimicrobial activity, Micrococcus luteus: ++
Pseudomonas fluorescens
  Antimicrobial activity, Pseudomonas fluorescens: +
Serratia sp
  Antimicrobial activity, Serratia sp: ±

## CC[C@]1(O)C[C@@H]2CN(CCc3c([nH]c4ccccc34)[C@@](C(=O)OC)(c3cc4c(cc3OC)N(C)[C@H]3[C@@](O)(C(=O)OC)[C@H](OC(C)=O)[C@]5(CC)C=CCN6CC[C@]43[C@@H]65)C2)C1 [Vinblastine, vinblastine, reference compound]
MRC-5 cells; control substance at 100 nM
  cell metabolic activity in % of the solvent control, mean: 51.88%
[1]; control substance at 100 nM
  cell metabolic activity in % of the solvent control, mean: 9.06%
